# Laboratory results published in PubChem BioAssay AID1963842 (Molecular Pharmacology Branch, DTP, NCI, 2024).
# Tested on: 677734-321-R-J1-PDC complex spheroid viability
# Experiment: Anticancer human tumor 677734-321-R-J1-PDC patient-derived soft tissue sarcoma cell line growth inhibition [POLQ]
# Conditions: for IC50: curve of first compound; for viability, T/C: stronger effect = lower value
# Outline: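 PDC + HUVEC + MSC complex spheroids; POLQ inhibitors ± partner drugs; top conc. at/near clinical Cmax, else 10 microM (SN-38 1 microM), half-log dilutions; 37 degrees C, 5% CO2.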
# [1] = second compound 0.0316 µM, first compound 0.0316 µM
# [2] = second compound 0.0316 µM, first compound 0.1 µM
# [3] = second compound 0.0316 µM, first compound 0.316 µM
# [4] = second compound 0.0316 µM, first compound 1 µM
# [5] = second compound 0.0316 µM, first compound 3.16 µM
# [6] = second compound 0.0316 µM, first compound 10 µM
# [7] = second compound 0.1 µM, first compound 0.0316 µM
# [8] = second compound 0.1 µM, first compound 0.1 µM
# [9] = second compound 0.1 µM, first compound 0.316 µM
# [10] = second compound 0.1 µM, first compound 1 µM
# [11] = second compound 0.1 µM, first compound 3.16 µM
# [12] = second compound 0.1 µM, first compound 10 µM
# [13] = second compound 0.316 µM, first compound 0.0316 µM
# [14] = second compound 0.316 µM, first compound 0.1 µM
# [15] = second compound 0.316 µM, first compound 0.316 µM
# [16] = second compound 0.316 µM, first compound 1 µM
# [17] = second compound 0.316 µM, first compound 3.16 µM
# [18] = second compound 0.316 µM, first compound 10 µM
# [19] = second compound 1 µM, first compound 0.0316 µM
# [20] = second compound 1 µM, first compound 0.1 µM
# [21] = second compound 1 µM, first compound 0.316 µM
# [22] = second compound 1 µM, first compound 1 µM
# [23] = second compound 1 µM, first compound 3.16 µM
# [24] = second compound 1 µM, first compound 10 µM
# [25] = second compound 3.16 µM, first compound 0.0316 µM
# [26] = second compound 3.16 µM, first compound 0.1 µM
# [27] = second compound 3.16 µM, first compound 0.316 µM
# [28] = second compound 3.16 µM, first compound 1 µM
# [29] = second compound 3.16 µM, first compound 3.16 µM
# [30] = second compound 3.16 µM, first compound 10 µM
# [31] = second compound 10 µM, first compound 0.0316 µM
# [32] = second compound 10 µM, first compound 0.1 µM
# [33] = second compound 10 µM, first compound 0.316 µM
# [34] = second compound 10 µM, first compound 1 µM
# [35] = second compound 10 µM, first compound 3.16 µM
# [36] = second compound 10 µM, first compound 10 µM
# 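Also: spheroids exposed to compounds for one week.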
# 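For viability, T/C in this document: 100% = vehicle DMSO treated spheroids.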
smiles,measurement,setting,value
CC1COCCN1c1cc(C2(S(C)(=N)=O)CC2)nc(-c2ccnc3[nH]ccc23)n1 (stereo not given) + Nc1ccc(C#CCN(C(=O)Cc2ncc(C(F)(F)F)cc2C(F)(F)F)c2ccc(F)cc2)nn1,IC50,second compound 0.0316 µM,1370 nM
same,IC50,second compound 0.1 µM,1230 nM
same,IC50,second compound 0.316 µM,879 nM
same,IC50,second compound 1 µM,1030 nM
same,IC50,second compound 3.16 µM,884 nM
same,IC50,second compound 10 µM,656 nM
same,"viability, T/C",[1],98.3%
same,"viability, T/C",[2],91.7%
same,"viability, T/C",[3],75%
same,"viability, T/C",[4],65.3%
same,"viability, T/C",[5],23.5%
same,"viability, T/C",[6],9.33%
same,"viability, T/C",[7],96.2%
same,"viability, T/C",[8],118%
same,"viability, T/C",[9],73.6%
same,"viability, T/C",[10],57.1%
same,"viability, T/C",[11],28.1%
same,"viability, T/C",[12],7.36%
same,"viability, T/C",[13],109%
same,"viability, T/C",[14],105%
same,"viability, T/C",[15],105%
same,"viability, T/C",[16],42.7%
same,"viability, T/C",[17],27.1%
same,"viability, T/C",[18],9.47%
same,"viability, T/C",[19],118%
same,"viability, T/C",[20],94.5%
same,"viability, T/C",[21],72.9%
same,"viability, T/C",[22],59.2%
same,"viability, T/C",[23],19.1%
same,"viability, T/C",[24],8.77%
same,"viability, T/C",[25],111%
same,"viability, T/C",[26],87.1%
same,"viability, T/C",[27],96.9%
same,"viability, T/C",[28],43.3%
same,"viability, T/C",[29],21.7%
same,"viability, T/C",[30],8.55%
same,"viability, T/C",[31],105%
same,"viability, T/C",[32],103%
same,"viability, T/C",[33],72.6%
same,"viability, T/C",[34],35.2%
same,"viability, T/C",[35],19.3%
same,"viability, T/C",[36],6.41%
O=C(Nc1ccc(O)c(NS(=O)(=O)c2ccc(F)cc2)c1)c1ccc(-c2ccccc2)cc1 + Cc1cccc(N(C)C(=O)C2C(O)CCN2c2nc(C)cc(C(F)(F)F)c2C#N)c1,IC50,second compound 0.0316 µM,4140 nM
same,IC50,second compound 0.1 µM,5420 nM
same,IC50,second compound 0.316 µM,3710 nM
same,IC50,second compound 1 µM,3420 nM
same,IC50,second compound 3.16 µM,2080 nM
same,IC50,second compound 10 µM,1470 nM
same,"viability, T/C",[1],89.4%
same,"viability, T/C",[2],92.9%
same,"viability, T/C",[3],97.1%
same,"viability, T/C",[4],96.7%
same,"viability, T/C",[5],60.3%
same,"viability, T/C",[6],16%
same,"viability, T/C",[7],98.5%
same,"viability, T/C",[8],95.8%
same,"viability, T/C",[9],101%
same,"viability, T/C",[10],92.7%
same,"viability, T/C",[11],75.6%
same,"viability, T/C",[12],20.9%
same,"viability, T/C",[13],101%
same,"viability, T/C",[14],97.1%
same,"viability, T/C",[15],99.3%
same,"viability, T/C",[16],70.6%
same,"viability, T/C",[17],58%
same,"viability, T/C",[18],19.3%
same,"viability, T/C",[19],103%
same,"viability, T/C",[20],90.2%
same,"viability, T/C",[21],101%
same,"viability, T/C",[22],101%
same,"viability, T/C",[23],52.5%
same,"viability, T/C",[24],15.6%
same,"viability, T/C",[25],84.3%
same,"viability, T/C",[26],110%
same,"viability, T/C",[27],87.6%
same,"viability, T/C",[28],75.7%
same,"viability, T/C",[29],35.5%
same,"viability, T/C",[30],17.9%
same,"viability, T/C",[31],76.8%
same,"viability, T/C",[32],95.1%
same,"viability, T/C",[33],74.6%
same,"viability, T/C",[34],59.1%
same,"viability, T/C",[35],31.5%
same,"viability, T/C",[36],11.4%
CC1COCCN1c1cc(C2(O)CC3CCC(C2)O3)c2cnn(-c3ccn[nH]3)c2n1 (stereo not given) + Nc1ccc(C#CCN(C(=O)Cc2ncc(C(F)(F)F)cc2C(F)(F)F)c2ccc(F)cc2)nn1,IC50,second compound 0.0316 µM,< 31.6 nM
same,IC50,second compound 0.1 µM,< 31.6 nM
same,IC50,second compound 0.316 µM,< 31.6 nM
same,IC50,second compound 1 µM,< 31.6 nM
same,IC50,second compound 3.16 µM,< 31.6 nM
same,IC50,second compound 10 µM,< 31.6 nM
same,"viability, T/C",[1],36.8%
same,"viability, T/C",[2],20.4%
same,"viability, T/C",[3],7.94%
same,"viability, T/C",[4],7.29%
same,"viability, T/C",[5],8.37%
same,"viability, T/C",[6],6.3%
same,"viability, T/C",[7],48.2%
same,"viability, T/C",[8],15%
same,"viability, T/C",[9],10.1%
same,"viability, T/C",[10],7.88%
same,"viability, T/C",[11],10.1%
same,"viability, T/C",[12],7.23%
same,"viability, T/C",[13],35.1%
same,"viability, T/C",[14],11.7%
same,"viability, T/C",[15],8.93%
same,"viability, T/C",[16],7.29%
same,"viability, T/C",[17],7.85%
same,"viability, T/C",[18],6.34%
same,"viability, T/C",[19],44.7%
same,"viability, T/C",[20],15.9%
same,"viability, T/C",[21],8.7%
same,"viability, T/C",[22],7.59%
same,"viability, T/C",[23],8.26%
same,"viability, T/C",[24],6%
same,"viability, T/C",[25],45.2%
same,"viability, T/C",[26],12.9%
same,"viability, T/C",[27],10%
same,"viability, T/C",[28],8.6%
same,"viability, T/C",[29],8.2%
same,"viability, T/C",[30],4.99%
same,"viability, T/C",[31],35.5%
same,"viability, T/C",[32],26.6%
same,"viability, T/C",[33],7.13%
same,"viability, T/C",[34],10.5%
same,"viability, T/C",[35],7.26%
same,"viability, T/C",[36],11.5%
COc1cccc2c1C(=O)c1c(O)c3c(c(O)c1C2=O)CC(O)(C(=O)CO)CC3OC1CC(N)C(O)C(C)O1 (stereo not given) + Nc1ccc(C#CCN(C(=O)Cc2ncc(C(F)(F)F)cc2C(F)(F)F)c2ccc(F)cc2)nn1,IC50,second compound 0.0316 µM,39.8 nM
same,IC50,second compound 0.1 µM,46.7 nM
same,IC50,second compound 0.316 µM,44.4 nM
same,IC50,second compound 1 µM,78.5 nM
same,IC50,second compound 3.16 µM,40.6 nM
same,IC50,second compound 10 µM,41 nM
same,"viability, T/C",[1],55.1%
same,"viability, T/C",[2],29.5%
same,"viability, T/C",[3],4.74%
same,"viability, T/C",[4],1.41%
same,"viability, T/C",[5],1.65%
same,"viability, T/C",[6],1.2%
same,"viability, T/C",[7],61%
same,"viability, T/C",[8],28.5%
same,"viability, T/C",[9],4.99%
same,"viability, T/C",[10],1.48%
same,"viability, T/C",[11],1.35%
same,"viability, T/C",[12],1.19%
same,"viability, T/C",[13],58.5%
same,"viability, T/C",[14],29.6%
same,"viability, T/C",[15],6.1%
same,"viability, T/C",[16],0.73%
same,"viability, T/C",[17],2.36%
same,"viability, T/C",[18],0.63%
same,"viability, T/C",[19],60%
same,"viability, T/C",[20],47.3%
same,"viability, T/C",[21],4.86%
same,"viability, T/C",[22],1.7%
same,"viability, T/C",[23],1.58%
same,"viability, T/C",[24],0.84%
same,"viability, T/C",[25],58.1%
same,"viability, T/C",[26],21.1%
same,"viability, T/C",[27],4.68%
same,"viability, T/C",[28],0.97%
same,"viability, T/C",[29],1.23%
same,"viability, T/C",[30],0.74%
same,"viability, T/C",[31],57.3%
same,"viability, T/C",[32],24.8%
same,"viability, T/C",[33],4.54%
same,"viability, T/C",[34],1.86%
same,"viability, T/C",[35],2.02%
same,"viability, T/C",[36],0.8%
CCCS(=O)(=O)Nc1ccc(F)c(C(=O)c2c[nH]c3ncc(-c4ccc(Cl)cc4)cc23)c1F + Cc1cccc(N(C)C(=O)C2C(O)CCN2c2nc(C)cc(C(F)(F)F)c2C#N)c1,IC50,second compound 0.0316 µM,4250 nM
same,IC50,second compound 0.1 µM,3820 nM
same,IC50,second compound 0.316 µM,3990 nM
same,IC50,second compound 1 µM,3120 nM
same,IC50,second compound 3.16 µM,2920 nM
same,IC50,second compound 10 µM,2000 nM
same,"viability, T/C",[1],104%
same,"viability, T/C",[2],105%
same,"viability, T/C",[3],108%
same,"viability, T/C",[4],99.8%
same,"viability, T/C",[5],65.3%
same,"viability, T/C",[6],5.8%
same,"viability, T/C",[7],94.5%
same,"viability, T/C",[8],87.3%
same,"viability, T/C",[9],100%
same,"viability, T/C",[10],86.4%
same,"viability, T/C",[11],59.1%
same,"viability, T/C",[12],4.58%
same,"viability, T/C",[13],90.7%
same,"viability, T/C",[14],101%
same,"viability, T/C",[15],89.1%
same,"viability, T/C",[16],96%
same,"viability, T/C",[17],61.9%
same,"viability, T/C",[18],3.41%
same,"viability, T/C",[19],101%
same,"viability, T/C",[20],93.2%
same,"viability, T/C",[21],79.6%
same,"viability, T/C",[22],108%
same,"viability, T/C",[23],49.4%
same,"viability, T/C",[24],2.83%
same,"viability, T/C",[25],94.1%
same,"viability, T/C",[26],84.6%
same,"viability, T/C",[27],94%
same,"viability, T/C",[28],98.4%
same,"viability, T/C",[29],46.8%
same,"viability, T/C",[30],2.44%
same,"viability, T/C",[31],80.1%
same,"viability, T/C",[32],71.7%
same,"viability, T/C",[33],80.6%
same,"viability, T/C",[34],83.3%
same,"viability, T/C",[35],30.8%
same,"viability, T/C",[36],0.79%
